A word on the MIC: it is the lowest concentration found to suppress growth. A high value points to a need for much substance.

≈ marks a conversion by molar mass, not a printed value. Where two headings read alike, the source gives them in different places. Square brackets hold non-standard residues; d marks the D form. Ends that are not written are not given here. Peptide text beside a SMILES is read from it.

Data set [1] deals with Candida albicans (SC5314, ATCC 24433, ATCC 90028). The data set is classed as cell-based. As to conditions: for MIC: SC5314. On the procedure: Minimum inhibitory concentration assay. Minimum inhibitory concentrations (MIC) for the β-peptides were determined using the broth microdilution assay described by the Committee for Clinical and Laboratory Standards (formerly known as the National Committee for Clinical Laboratory Standards) (National Committee for Clinical Laboratory Standards Reference method for broth dilution antifungal susceptibility testing of yeasts: approved standard—second edition; NCCLS document M27-A2; NCCLS: Wayne, Pa., 2002). Three strains of Candida albicans were used: SC5314, ATCC 24433, and ATCC 90028. Cells were grown for 24 hours on Sabouraud dextrose agar at 30° C. After 24 hours of growth, the cells were suspended in 0.145 M saline, and the concentration was adjusted to between 1×10^6 cells/mL and 5×10^6 cells/mL in saline. The working suspension was obtained by diluting the suspension 1:1000 in RPMI 1640 (with L-glutamine and without sodium bicarbonate, Invitrogen) buffered with 0.145 mol/L 3-(N-morpholino) propanesulfonic acid (MOPS).
Twofold serial dilutions of stock solutions of α- or β-peptides or amphotericin B (Calbiochem, solubilized in dimethyl sulfoxide) were made in RPMI 1640, and 100 μL aliquots were put into 96-well plates (Falcon). An equal volume of the cell suspension was added to the wells for a total volume of 200 μL. Growth controls and sterility controls were included.
Plates were incubated at 35° C. for 48 h and then visually inspected for fungal growth. […] Experiments were performed in duplicate and repeated on at least two different days.

For data set [2], the system named is human red blood cells (hRBC). The data set is described as follows: Hemolysis assay. The class given is cell-based. On the procedure: Hemolysis assay. The hemolysis assay was performed using human red blood cells (hRBC) as described previously (Raguse, et al. J. Am. Chem. Soc. 2002, 124, 12774-12785; Porter, et al. J. Am. Chem. Soc. 2005, 127, 11516-11529). The hRBC were washed three times in TRIS-buffered saline (TBS; 10 mM TRIS, 150 mM NaCl, pH 7.2) and then diluted to a concentration of 1% (v/v) in TBS. The hRBC suspension (80 μL) was added to twofold dilutions of peptides in TBS (20 μL) in a 96-well plate (Falcon). Wells containing hRBC treated with 20 μL TBS provided a negative control, and wells with high concentrations of the peptide melittin (Sigma) served as a positive control. After incubating at 37° C. for 1 h, plates were centrifuged, and 50 μL of the supernatant was diluted with 50 μL of water in a fresh 96-well plate. The absorbance of the diluted supernatant was measured at 405 nm, and the percent hemolysis for each well was calculated from
[formula] where A405^peptide is the absorbance for the supernatant of hRBC treated with peptide, A405^buffer is the absorbance for the supernatant of hRBC in TBS, and A405^completlysis is the average absorbance for the supernatant of cells treated with melittin at concentrations of 50-400 μg/mL. Experiments were performed in duplicate on at least two different days. Biofilm Antifungal Susceptibility Testing

Where [3] appears, read: pH 7, physiological ionic strength.
Setting [4] is: average over three C. albicans strains, pH 7, physiological ionic strength, Table 1 prints no unit.

For “cecropin B (KWKVFKKIEKMGRNIRNGIVKAGPAIAVLGEAKAL; ends and bridges not checked; UniProt P01508 27-61, looked up) [amphiphilic host-defense α-peptide, reference compound]”, the “antifungal activity in the planktonic NCCLS assay (in words)” value (shortened to “antifungal activity”) in data set [1] (setting [3]) was “neither cecropin B nor a magainin derivative displays any activity”.

As for `CC(C)[C@@H](CC(=O)N[C@@H](CCCCN)CC(=O)N[C@H](CC(=O)N[C@H](CC(=O)N[C@@H](CCCCN)CC(=O)N[C@H](CC(=O)N[C@H](CC(=O)N[C@@H](CCCCN)CC(N)=O)C(C)C)C(C)C)C(C)C)C(C)C)NC(=O)C[C@@H](NC(=O)C[C@@H](N)Cc1ccc(O)cc1)C(C)C` [β-peptide 4, β^3Tyr-(β^3Val-β^3Val-β^3Lys)3], the “Average MIC” value in data set [1] (SC5314, pH 7) was found to be 69 µg/mL. Besides, the “antifungal activity” value in data set [1] (pH 7, physiological ionic strength, listed as 4) was “substantially weaker antifungal activity”; in data set [1] (pH 7, physiological ionic strength, listed as β^3Tyr-(β^3Val-β^3Val-β^3Lys)3) it was “showed activity in the planktonic assay”. Further, the “% Hemolysis at MIC” value in data set [2] is given as 9%.

Take `NCCCC[C@@H](CC(N)=O)NC(=O)C[C@H](Cc1ccccc1)NC(=O)[C@H]1CCCC[C@@H]1NC(=O)C[C@H](CCCCN)NC(=O)C[C@H](Cc1ccccc1)NC(=O)[C@H]1CCCC[C@@H]1NC(=O)C[C@H](CCCCN)NC(=O)C[C@H](Cc1ccccc1)NC(=O)[C@H]1CCCC[C@@H]1NC(=O)C[C@@H](N)Cc1ccc(O)cc1` [β-peptide 3, β^3Tyr-(ACHC-β^3Phe-β^3Lys)3]: the “Average MIC” value in data set [1] (SC5314, pH 7) worked out at 8 µg/mL. In addition, the “% Hemolysis at MIC” value in data set [2] is on record as 80%.

`CC[C@H](C)[C@H](NC(=O)CN)C(=O)NCC(=O)N[C@@H](CCCCN)C(=O)N[C@@H](Cc1ccccc1)C(=O)N[C@@H](CC(C)C)C(=O)N[C@@H](Cc1c[nH]cn1)C(=O)N[C@@H](C)C(=O)N[C@@H](C)C(=O)N[C@@H](CCCCN)C(=O)N[C@@H](CCCCN)C(=O)N[C@@H](Cc1ccccc1)C(=O)N[C@@H](C)C(=O)N[C@@H](CCCCN)C(=O)N[C@@H](C)C(=O)N[C@@H](Cc1ccccc1)C(=O)N[C@H](C(=O)N[C@@H](C)C(=O)N[C@@H](CCC(=O)O)C(=O)N[C@H](C(=O)N[C@@H](CCSC)C(=O)N[C@@H](CC(N)=O)C(=O)N[C@@H](CO)C(N)=O)[C@@H](C)CC)C(C)C` [L-Magainin 2 derivative, reference compound] (H-GIGKFLHAAKKFAKAFVAEIMNS-NH2; N-terminus assumed): the “Average MIC” value in data set [1] (SC5314, pH 7) was over 128 µg/mL. The “antifungal activity” value in data set [1] (setting [3]) is recorded as “neither cecropin B nor a magainin derivative displays any activity”. Besides, the “% Hemolysis at MIC” value in data set [2] amounted to 48%.

As for `CC(C)C[C@@H](CC(=O)N[C@H]1CCCC[C@@H]1C(=O)N[C@@H](CCCCN)CC(N)=O)NC(=O)C[C@H](CCCCN)NC(=O)[C@H]1CCCC[C@@H]1NC(=O)C[C@H](CC(C)C)NC(=O)C[C@H](CCCCN)NC(=O)[C@H]1CCCC[C@@H]1NC(=O)C[C@H](CC(C)C)NC(=O)C[C@@H](N)Cc1ccc(O)cc1` [β^3Tyr-(β^3Leu-ACHC-β^3Lys)3], the MIC in data set [1] worked out at 16 µg/mL (≈ 11.6 µM).

Consider `CC(C)C[C@@H](CC(=O)N[C@@H](CCCCN)CC(=O)N[C@H]1CCCC[C@@H]1C(=O)N[C@H](CC(=O)N[C@@H](CCCCN)CC(=O)N[C@H]1CCCC[C@@H]1C(=O)N[C@H](CC(=O)N[C@@H](CCCCN)CC(N)=O)CC(C)C)CC(C)C)NC(=O)[C@H]1CCCC[C@@H]1NC(=O)C[C@@H](N)Cc1ccc(O)cc1` [β-peptide 2, β^3Tyr-(ACHC-β^3Leu-β^3Lys)3], for which the “Average MIC” value in data set [1] (SC5314, pH 7) is 11 µg/mL. Besides, the “% Hemolysis at MIC” value in data set [2] came out at 73%.

β^3Tyr-(ACHC-β^3Val-β^3Arg)3: in data set [1] (setting [3]), the “antifungal activity” value is “showed activity in the planktonic assay”.

Regarding C9-β^3Tyr-(ACHC-ACHC-β^3Lys)3, the “Average MIC” value in data set [1] (setting [4]) is 16 µg/mL.

As for `CC(C)[C@@H](CC(=O)N[C@@H](CCCCN)CC(N)=O)NC(=O)[C@H]1CCCC[C@@H]1NC(=O)C[C@H](CCCCN)NC(=O)C[C@@H](NC(=O)[C@H]1CCCC[C@@H]1NC(=O)C[C@H](CCCCN)NC(=O)C[C@@H](NC(=O)[C@H]1CCCC[C@@H]1N)C(C)C)C(C)C` [β-peptide 6, (ACHC-β^3Val-β^3Lys)3], the “Average MIC” value in data set [1] (setting [4]) turned out to be 17 µg/mL. Moreover, the “antifungal activity” value in data set [1] (pH 7, physiological ionic strength, listed as 6) was “average MIC is indistinguishable relative to β^3Tyr-containing variant (1)”; in data set [1] (pH 7, physiological ionic strength, listed as (ACHC-β^3Val-β^3Lys)3) it was “showed activity in the planktonic assay”. The “% Hemolysis at MIC” value in data set [2] (human red blood cells, at the average MIC) worked out at 5%.

With `NCCCC[C@H](CC(N)=O)NC(=O)C[C@@H](Cc1ccccc1)NC(=O)[C@@H]1CCCC[C@H]1NC(=O)C[C@@H](CCCCN)NC(=O)C[C@@H](Cc1ccccc1)NC(=O)[C@@H]1CCCC[C@H]1NC(=O)C[C@@H](CCCCN)NC(=O)C[C@@H](Cc1ccccc1)NC(=O)[C@@H]1CCCC[C@H]1NC(=O)C[C@H](N)Cc1ccc(O)cc1` [(R)β^3Tyr-[(R,R)ACHC—(R)β^3Phe-(R)β^3Lys]3], the minimum inhibitory concentration (MIC) in data set [1] is 8 µg/mL (≈ 5.41 µM).

Regarding `CC(C)[C@@H](CC(=O)N[C@H]1CCCC[C@@H]1C(=O)N[C@@H](CCCCN)CC(=O)N[C@H](CC(=O)N[C@H]1CCCC[C@@H]1C(=O)N[C@H]1CCCC[C@@H]1C(=O)N[C@@H](CCCCN)CC(N)=O)C(C)C)NC(=O)C[C@@H](NC(=O)C[C@@H](N)CCCCN)C(C)C` [β-peptide 7, β^3Lys-β^3Val-β^3Val-ACHC-β^3Lys-β^3Val-ACHC-ACHC-β^3Lys], the “antifungal activity” value in data set [1] (setting [3]) is recorded as “lack of antifungal activity”.

As for `CC[C@@H](C)[C@@H](NC(=O)CN)C(=O)NCC(=O)N[C@H](CCCCN)C(=O)N[C@H](Cc1ccccc1)C(=O)N[C@H](CC(C)C)C(=O)N[C@H](Cc1c[nH]cn1)C(=O)N[C@H](C)C(=O)N[C@H](C)C(=O)N[C@H](CCCCN)C(=O)N[C@H](CCCCN)C(=O)N[C@H](Cc1ccccc1)C(=O)N[C@H](C)C(=O)N[C@H](CCCCN)C(=O)N[C@H](C)C(=O)N[C@H](Cc1ccccc1)C(=O)N[C@@H](C(=O)N[C@H](C)C(=O)N[C@H](CCC(=O)O)C(=O)N[C@@H](C(=O)N[C@H](CCSC)C(=O)N[C@H](CC(N)=O)C(=O)N[C@H](CO)C(N)=O)[C@H](C)CC)C(C)C` [D-Magainin 2 derivative, reference compound] (H-G[dI]G[dK][dF][dL][dH][dA][dA][dK][dK][dF][dA][dK][dA][dF][dV][dA][dE][dI][dM][dN][dS]-NH2; N-terminus assumed), in data set [1] (SC5314, pH 7), the “Average MIC” value is over 128 µg/mL. Also, in data set [1] (setting [3]), the “antifungal activity” value was “inactive”. In data set [2], the “% Hemolysis at MIC” value amounted to 48%.

In data set [1], `NCCCC[C@@H](CC(N)=O)NC(=O)[C@H]1CCCC[C@@H]1NC(=O)[C@H]1CCCC[C@@H]1NC(=O)C[C@H](CCCCN)NC(=O)[C@H]1CCCC[C@@H]1NC(=O)[C@H]1CCCC[C@@H]1NC(=O)C[C@H](CCCCN)NC(=O)[C@H]1CCCC[C@@H]1NC(=O)[C@H]1CCCC[C@@H]1NC(=O)C[C@@H](N)Cc1ccc(O)cc1` [β-peptide 5, β^3Tyr-(ACHC-ACHC-β^3Lys)3] gave an MIC of 16 µg/mL (≈ 11.7 µM). The “Average MIC” value in data set [1] (SC5314, pH 7) was determined as 21 µg/mL. For the same compound, the “% Hemolysis at MIC” value in data set [2] came to 7%.

The values above are taken from patent publication US9168329B2, “Beta-peptides with antifungal activity” (Wisconsin Alumni Research Foundation, priority 2006, dated 2015).
